Experimental data: patent US10588317B2, “Isoxazoline-substituted benzamides and analogues as insecticides” (priority 2015, dated 2020)

Columns and labels:
Assay type in all cases: in vivo
[1] = system: Spodoptera littoralis; experiment: Spodoptera littoralis (Egyptian cotton leaf worm), sprayed cotton leaf discs; conditions: foliar, 72 h, application rate 200 ppm, L1 larvae, 3 days after infestation, read-out: control (mortality, anti-feeding effect, growth inhibition)
Method in brief: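 Five first-instar larvae placed on dried cotton leaf discs (on agar) previously sprayed with aqueous dilutions of 10'000 ppm DMSO stocks. Scored at 3 days against untreated discs for mortality, feeding inhibition and growth inhibition; any category above untreated counts as control.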

[2] = system: Plutella xylostella; experiment: Plutella xylostella (diamond back moth), artificial diet; conditions: 120 h, application rate 200 ppm, L2 larvae, 5 days after infestation, read-out: effect in at least one of the two categories (mortality or growth inhibition)
Method in brief: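 L2 larvae (10-15 per well) fed on compound-treated, dried artificial diet; test solutions diluted in water from 10'000 ppm DMSO stocks. Readout 5 days post-infestation as mortality or growth inhibition versus untreated diet, with at least 80% effect at 200 ppm as threshold.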

[3] = system: Thrips tabaci; experiment: Thrips tabaci (onion thrips): feeding/contact activity; conditions: 144 h, application rate 200 ppm, Thrips population of mixed ages, 6 days after infestation, read-out: mortality
Method: (§1) Sunflower leaf discs were placed on agar in 24-well microtiter plates and sprayed with aqueous test solutions prepared from 10'000 ppm DMSO stock solutions. After drying the leaf discs were infested with a Thrips population of mixed ages. The samples were assessed for mortality 6 days after infestation.

[4] = system: Diabrotica balteata; experiment: Diabrotica balteata (corn root worm), sprayed maize sprouts; conditions: 96 h, application rate 200 ppm, L2 larvae, 4 days after infestation, read-out: effect in at least one of the two categories (mortality or growth inhibition)
Method in brief: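 Read-out at 4 days post-infestation: mortality and growth inhibition relative to untreated samples. Test solutions (200 ppm, from DMSO stocks) were sprayed onto agar-held maize sprouts, which after drying received 6–10 L2 larvae per well.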

[5] = system: Spodoptera littoralis; experiment: Spodoptera littoralis (Egyptian cotton leaf worm), uptake by lettuce roots from agar; conditions: 144 h, read-out: effect in at least one of the three categories (mortality, anti-feeding, or growth inhibition)
Method in brief: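 Systemic test: Spodoptera eggs placed on lettuce leaves from seedlings raised 7 days on agar containing the compound (diluted from 10'000 ppm DMSO stock). Six days after infestation, larvae scored against untreated controls for mortality, feeding deterrence and growth inhibition.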

[6] = system: Tetranychus urticae; experiment: Tetranychus urticae (two-spotted spider mite): feeding/contact activity; conditions: 192 h, application rate 200 ppm, mixed population (mobile stages), 8 days after infestation, read-out: mortality
Method: as §1, with “Bean” for “Sunflower”, “discs” for “discs were placed”, “were” for “and”, “mite” for “Thrips”, “on mixed population (mobile stages) 8” for “6”

[7] = system: Myzus persicae; experiment: Myzus persicae (green peach aphid): feeding/contact activity; conditions: 144 h, application rate 200 ppm, aphid population of mixed ages, 6 days after infestation, read-out: mortality
Method: Sunflower leaf discs were placed onto agar in a 24-well microtiter plate and sprayed with aqueous test solutions prepared from 10'000 ppm DMSO stock solutions. After drying, the leaf discs were infested with an aphid population of mixed ages. The samples were assessed for mortality 6 days after infestation.

[8] = system: Euschistus heros; experiment: Euschistus heros (neotropical brown stink bug), sprayed soybean leaves; conditions: 120 h, application rate 200 ppm, N2 nymphs, 5 days after infestation, read-out: effect in at least one of the two categories (mortality or growth inhibition)
Method in brief: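 Scored 5 days post-infestation versus untreated controls, for both mortality and growth inhibition: N2 nymphs placed on agar-mounted soybean leaves previously sprayed at 200 ppm with aqueous test solutions from DMSO stocks and left to dry.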

CCS(=O)(=O)N1C[C@@H](NC(=O)c2ccc(C3=NO[C@@](c4cc(Cl)c(F)c(Cl)c4)(C(F)(F)F)C3)cc2C)CO1 [Compound A119]
≥ 80%: mortality at 200 ppm [1] | percent effect (mortality or growth inhibition) at 200 ppm [2] | mortality at 200 ppm [3] | percent effect (mortality or growth inhibition) at 200 ppm [4] | percent control (mortality, anti-feedant effect or growth inhibition) at 12.5 ppm [5] | mortality at 200 ppm [6] | mortality at 200 ppm [7] | percent effect (mortality or growth inhibition) at 200 ppm [8]

CNS(=O)(=O)N1CC(NC(=O)c2ccc(C3=NO[C@@](c4cc(Cl)c(F)c(Cl)c4)(C(F)(F)F)C3)cc2C)CO1 (stereo partly drawn) [Compound A70]
≥ 80%: mortality at 200 ppm [1] | percent effect (mortality or growth inhibition) at 200 ppm [2] | mortality at 200 ppm [3] | percent effect (mortality or growth inhibition) at 200 ppm [4] | percent control (mortality, anti-feedant effect or growth inhibition) at 12.5 ppm [5] | mortality at 200 ppm [6] | mortality at 200 ppm [7] | percent effect (mortality or growth inhibition) at 200 ppm [8]

CCNS(=O)(=O)N1C[C@@H](NC(=O)c2ccc(C3=NO[C@@](c4cc(Cl)cc(C(F)(F)F)c4)(C(F)(F)F)C3)cc2Cl)CO1 [Compound A128]
≥ 80%: mortality at 200 ppm [1] | percent effect (mortality or growth inhibition) at 200 ppm [2] | mortality at 200 ppm [3] | percent effect (mortality or growth inhibition) at 200 ppm [4] | percent control (mortality, anti-feedant effect or growth inhibition) at 12.5 ppm [5] | mortality at 200 ppm [6] | mortality at 200 ppm [7] | percent effect (mortality or growth inhibition) at 200 ppm [8]

CCS(=O)(=O)N1CC(NC(=O)c2ccc(C3=NO[C@@](c4cc(Cl)cc(C(F)(F)F)c4)(C(F)(F)F)C3)cc2C)CO1 (stereo partly drawn) [Compound A42]
≥ 80%: mortality at 200 ppm [1] | percent effect (mortality or growth inhibition) at 200 ppm [2] | mortality at 200 ppm [3] | percent effect (mortality or growth inhibition) at 200 ppm [4] | percent control (mortality, anti-feedant effect or growth inhibition) at 12.5 ppm [5] | mortality at 200 ppm [6] | mortality at 200 ppm [7] | percent effect (mortality or growth inhibition) at 200 ppm [8]

CCS(=O)(=O)N1C[C@@H](NC(=O)c2ccc(C3=NO[C@@](c4cc(Cl)cc(C(F)(F)F)c4)(C(F)(F)F)C3)cc2Cl)CO1 [Compound A122]
≥ 80%: mortality at 200 ppm [1] | percent effect (mortality or growth inhibition) at 200 ppm [2] | mortality at 200 ppm [3] | percent effect (mortality or growth inhibition) at 200 ppm [4] | percent control (mortality, anti-feedant effect or growth inhibition) at 12.5 ppm [5] | mortality at 200 ppm [6] | mortality at 200 ppm [7] | percent effect (mortality or growth inhibition) at 200 ppm [8]

Cc1cc(C2=NOC(c3ccc(Cl)c(Cl)c3)(C(F)(F)F)C2)ccc1C(=O)NC1CON(S(C)(=O)=O)C1 (stereo not drawn) [Compound A66]
≥ 80%: mortality at 200 ppm [1] | percent effect (mortality or growth inhibition) at 200 ppm [2] | mortality at 200 ppm [3] | percent effect (mortality or growth inhibition) at 200 ppm [4] | percent effect (mortality, anti-feeding or growth inhibition) at 12.5 ppm ([5]; test rate 12.5 ppm, eggs, 6 days after infestation) | mortality at 200 ppm [6] | mortality at 200 ppm [7] | percent effect (mortality or growth inhibition) at 200 ppm [8]

Cc1cc(C2=NO[C@@](c3cc(Cl)c(F)c(Cl)c3)(C(F)(F)F)C2)ccc1C(=O)NC1CON(S(=O)(=O)C2CC2)C1 (stereo partly drawn) [Compound A6]
≥ 80%: mortality at 200 ppm [1] | percent effect (mortality or growth inhibition) at 200 ppm [2] | mortality at 200 ppm [3] | percent effect (mortality or growth inhibition) at 200 ppm [4] | percent control (mortality, anti-feedant effect or growth inhibition) at 12.5 ppm [5] | mortality at 200 ppm [6] | mortality at 200 ppm [7] | percent effect (mortality or growth inhibition) at 200 ppm [8]

CCNS(=O)(=O)N1C[C@@H](NC(=O)c2ccc(C3=NO[C@@](c4cc(Cl)cc(Cl)c4)(C(F)(F)F)C3)cc2Cl)CO1 [Compound A113, 2-chloro-4-[(5S)-5-(3,5-dichlorophenyl)-5-(trifluoromethyl)-4H-isoxazol-3-yl]-N-[(4R)-2-(ethylsulfamoyl)isoxazolidin-4-yl]benzamide]
≥ 80%: mortality at 200 ppm [1] | percent effect (mortality or growth inhibition) at 200 ppm [2] | mortality at 200 ppm [3] | percent effect (mortality or growth inhibition) at 200 ppm [4] | percent control (mortality, anti-feedant effect or growth inhibition) at 12.5 ppm [5] | mortality at 200 ppm [6] | mortality at 200 ppm [7] | percent effect (mortality or growth inhibition) at 200 ppm [8]

CCN(C)S(=O)(=O)N1C[C@@H](NC(=O)c2ccc(C3=NO[C@@](c4cc(Cl)c(F)c(Cl)c4)(C(F)(F)F)C3)cc2Cl)CO1 [Compound A131, 2-chloro-4-[(5S)-5-(3,5-dichloro-4-fluoro-phenyl)-5-(trifluoromethyl)-4H-isoxazol-3-yl]-N-[(4R)-2-[ethyl(methyl)sulfamoyl]isoxazolidin-4-yl]benzamide]
≥ 80%: mortality at 200 ppm [1] | percent effect (mortality or growth inhibition) at 200 ppm [2] | mortality at 200 ppm [3] | percent effect (mortality or growth inhibition) at 200 ppm [4] | percent control (mortality, anti-feedant effect or growth inhibition) at 12.5 ppm [5] | mortality at 200 ppm [6] | mortality at 200 ppm [7] | percent effect (mortality or growth inhibition) at 200 ppm [8]

Cc1cc(C2=NO[C@@](c3cc(Cl)cc(Cl)c3)(C(F)(F)F)C2)ccc1C(=O)N[C@H]1CON(S(=O)(=O)N(C)C)C1 [Compound A39]
≥ 80%: mortality at 200 ppm [1] | percent effect (mortality or growth inhibition) at 200 ppm [2] | mortality at 200 ppm [3] | percent effect (mortality or growth inhibition) at 200 ppm [4] | percent control (mortality, anti-feedant effect or growth inhibition) at 12.5 ppm [5] | mortality at 200 ppm [6] | mortality at 200 ppm [7] | percent effect (mortality or growth inhibition) at 200 ppm [8]

CCN(C)S(=O)(=O)N1C[C@@H](NC(=O)c2ccc(C3=NO[C@@](c4cc(Cl)cc(C(F)(F)F)c4)(C(F)(F)F)C3)cc2C)CO1 [Compound A141]
≥ 80%: mortality at 200 ppm [1] | percent effect (mortality or growth inhibition) at 200 ppm [2] | mortality at 200 ppm [3] | percent effect (mortality or growth inhibition) at 200 ppm [4] | percent control (mortality, anti-feedant effect or growth inhibition) at 12.5 ppm [5] | mortality at 200 ppm [6] | mortality at 200 ppm [7] | percent effect (mortality or growth inhibition) at 200 ppm [8]

CS(=O)(=O)N1C[C@@H](NC(=O)c2ccc(C3=NO[C@@](c4cc(Cl)cc(Cl)c4)(C(F)(F)F)C3)cc2Cl)CO1 [Compound A116]
≥ 80%: mortality at 200 ppm [1] | percent effect (mortality or growth inhibition) at 200 ppm [2] | mortality at 200 ppm [3] | percent effect (mortality or growth inhibition) at 200 ppm [4] | percent control (mortality, anti-feedant effect or growth inhibition) at 12.5 ppm [5] | mortality at 200 ppm [6] | mortality at 200 ppm [7] | percent effect (mortality or growth inhibition) at 200 ppm [8]

CCN(C)S(=O)(=O)N1C[C@@H](NC(=O)c2ccc(C3=NO[C@@](c4cc(Cl)c(F)c(Cl)c4)(C(F)(F)F)C3)cc2C)CO1 [Compound A140, 4-[(5S)-5-(3,5-dichloro-4-fluoro-phenyl)-5-(trifluoromethyl)-4H-isoxazol-3-yl]-N-[(4R)-2-[ethyl(methyl)sulfamoyl]isoxazolidin-4-yl]-2-methyl-benzamide]
≥ 80%: mortality at 200 ppm [1] | percent effect (mortality or growth inhibition) at 200 ppm [2] | mortality at 200 ppm [3] | percent effect (mortality or growth inhibition) at 200 ppm [4] | percent control (mortality, anti-feedant effect or growth inhibition) at 12.5 ppm [5] | mortality at 200 ppm [6] | mortality at 200 ppm [7] | percent effect (mortality or growth inhibition) at 200 ppm [8]

C#CCNS(=O)(=O)N1C[C@@H](NC(=O)c2ccc(C3=NO[C@@](c4cc(Cl)cc(Cl)c4)(C(F)(F)F)C3)cc2Cl)CO1 [Compound A158]
≥ 80%: mortality at 200 ppm [1] | percent effect (mortality or growth inhibition) at 200 ppm [2] | mortality at 200 ppm [3] | percent effect (mortality or growth inhibition) at 200 ppm [4] | percent control (mortality, anti-feedant effect or growth inhibition) at 12.5 ppm [5] | mortality at 200 ppm [6] | mortality at 200 ppm [7] | percent effect (mortality or growth inhibition) at 200 ppm [8]

Cc1cc(C2=NO[C@@](c3cc(Cl)cc(Cl)c3)(C(F)(F)F)C2)ccc1C(=O)N[C@H]1CON(S(C)(=O)=O)C1 [Compound A38]
≥ 80%: mortality at 200 ppm [1] | percent effect (mortality or growth inhibition) at 200 ppm [2] | mortality at 200 ppm [3] | percent effect (mortality or growth inhibition) at 200 ppm [4] | percent control (mortality, anti-feedant effect or growth inhibition) at 12.5 ppm [5] | mortality at 200 ppm [6] | mortality at 200 ppm [7] | percent effect (mortality or growth inhibition) at 200 ppm [8]
